The source of these data is patent US11078193B2 (priority 2014, dated 2021).

Holding throughout (type): cell-based
Data set [1] has as its system HBV. Kind of data set: anti-HBV activity, HepG2.2.15 stable transfected cell line, HBV DNA from secreted virions by realtime PCR. The settings on record: Hepatitis B virus, 144 h, HepG2.2.15 cells, 6 days of treatment.
The subject of data set [2] is HBV. Kind of data set: anti HBV activity, HepG2.117 inducibly HBV producing cell line (Tet-off), intracellular HBV DNA by realtime PCR. The settings on record: Hepatitis B virus, 72 h, HepG2.117 cells, 3 days of treatment.
Data set [3] is described as follows: Cytotoxicity, HepG2 cells, Resazurin assay. The settings on record: human.

Molecules are shown by their SMILES.

With `Cn1cc(S(=O)(=O)NC2(C)CC(F)(F)C2)c(Cl)c1C(=O)Nc1ccnc(C#N)c1` [Compound 64, 3-chloro-N-(2-cyano-4-pyridyl)-4-[(3,3-difluoro-1-methyl-cyclobutyl)-sulfamoyl]-1-methyl-pyrrole-2-carboxamide], the EC50 was determined as 20 nM in the data set with HBV [1] and 30 nM in the data set on HBV [2]. In data set [3], half-maximal cytotoxicity (CC50 at 4 days) was put at 23000 nM.
With `C[C@@H](NS(=O)(=O)c1cn(C)c(C(=O)Nc2cccc(C(F)(F)F)n2)c1F)C(F)(F)F` [Compound 26, 3-fluoro-1-methyl-4-[[(1R)-2,2,2-trifluoro-1-methyl-ethyl]sulfamoyl]-N-[6-(trifluoromethyl)-2-pyridyl]pyrrole-2-carboxamide], the EC50 with HBV [1] is 110 nM; in the data set with HBV [2] it was above 1000 nM. In addition, the CC50 at 4 days in data set [3] was above 25000 nM.
As to `C[C@@H](NS(=O)(=O)c1cn(C)c(C(=O)Nc2cc(F)nc(F)c2)c1Cl)C(F)(F)F` [Compound 35, 3-chloro-N-(2,6-difluoro-4-pyridyl)-1-methyl-4-[[(1R)-2,2,2-trifluoro-1-methyl-ethyl]sulfamoyl]pyrrole-2-carboxamide], the EC50 is 5 nM in the data set with HBV [1] and 10 nM with HBV [2]. In data set [3], this compound yielded a CC50 at 4 days above 25000 nM.
For `Cn1cc(S(=O)(=O)NC2(C)COC2)cc1C(=O)Nc1cccc(C(F)(F)F)n1` [Compound 5, 1-Methyl-4-[(3-methyloxetan-3-yl)sulfamoyl]-N-[6-(trifluoromethyl)pyridin-2-yl]-1H-pyrrole-2-carboxamide], in that order: 920 nM, 3110 nM and above 25000 nM.
The corresponding values for `Cn1cc(S(=O)(=O)NC(C)(C)C)c(Cl)c1C(=O)Nc1ccnc(C#N)c1` [Compound 6, 4-(tert-Butylsulfamoyl)-3-chloro-N-(2-cyanopyridin-4-yl)-1-methyl-1H-pyrrole-2-carboxamide] are 590 nM, 650 nM and above 25000 nM.
For `C[C@@H](NS(=O)(=O)c1cn(C)c(C(=O)Nc2cc(Cl)nc(Cl)c2)c1F)C(F)(F)F` [Compound 126, N-(2,6-dichloro-4-pyridyl)-3-fluoro-1-methyl-4-[[(1R)-2,2,2-trifluoro-1-methyl-ethyl]sulfamoyl]pyrrole-2-carboxamide], the EC50 in the data set on HBV [1] and in the data set on HBV [2] was 20 nM in each case. Moreover, in data set [3], the CC50 at 4 days was above 25000 nM.
Regarding `C[C@@H](NS(=O)(=O)c1cn(C)c(C(=O)Nc2cccc(C#N)n2)c1F)C(F)(F)F` [Compound 25, N-(6-cyano-2-pyridyl)-3-fluoro-1-methyl-4-[[(1R)-2,2,2-trifluoro-1-methyl-ethyl]sulfamoyl]pyrrole-2-carboxamide], the EC50 in the data set on HBV [1] was 190 nM; in the data set with HBV [2] it was above 1000 nM. In data set [3], this compound displayed a 50% cytotoxic concentration (CC50) at 4 days above 25000 nM.
For `C[C@@H](NS(=O)(=O)c1cn(C)c(C(=O)Nc2cccc(C#N)n2)c1Cl)C(F)(F)F` [Compound 22, 3-chloro-N-(6-cyano-2-pyridyl)-1-methyl-[[(1R)-2,2,2-trifluoro-1-methyl-ethyl]sulfamoyl]pyrrole-2-carboxamide], in that order: 440 nM, 720 nM and above 25000 nM.
Turning to `C[C@H](NS(=O)(=O)c1cn(C)c(C(=O)Nc2ccnc(C#N)c2)c1F)C(F)(F)F` [Compound 19, N-(2-Cyanopyridin-4-yl)-3-fluoro-1-methyl-4-{[(1S)-2,2,2-trifluoro-1-methylethyl]sulfamoyl}-1H-pyrrole-2-carboxamide], the EC50 in the data set with HBV [1] worked out at 160 nM; in the data set with HBV [2], 100 nM. In data set [3], this compound registered a CC50 at 4 days above 25000 nM.
The corresponding values for `Cn1cc(S(=O)(=O)NC2(C(F)(F)F)CC2)cc1C(=O)Nc1ccnc(C#N)c1` [Compound 49, N-(2-cyano-4-pyridyl)-1-methyl-4-[[1-(trifluoromethyl)cyclopropyl]-sulfamoyl]pyrrole-2-carboxamide] are 110 nM, 110 nM and above 25000 nM.
Turning to `C[C@@H](NS(=O)(=O)c1cn(C)c(C(=O)Nc2ccnc(Br)c2)c1F)C(C)(F)F` [Compound 124, N-(2-bromo-4-pyridyl)-4-[[(1R)-2,2-difluoro-1-methyl-propyl]sulfamoyl]-3-fluoro-1-methyl-pyrrole-2-carboxamide], the figures for the EC50 in the data set on HBV [1] and in the data set with HBV [2] were below 100 nM and 10 nM, respectively. In addition, in data set [3], the 50% cytotoxic concentration (CC50) at 4 days is above 25000 nM.
Regarding `CC[C@H](NS(=O)(=O)c1cn(C)c(C(=O)Nc2ccnc(C#N)c2)c1Cl)C(F)(F)F` [Compound 37, 3-chloro-N-(2-cyano-4-pyridyl)-1-methyl-4-[[(1S)-1-(trifluoromethyl)-propyl]sulfamoyl]pyrrole-2-carboxamide], the EC50 in the data set on HBV [1] was 150 nM; in the data set with HBV [2] it was 200 nM. This compound showed a CC50 at 4 days in data set [3] above 25000 nM.
For `Cn1cc(S(=O)(=O)NC2(C(F)(F)F)CCC2)cc1C(=O)Nc1ccnc(Cl)c1` [Compound 48, N-(2-chloro-4-pyridyl)-1-methyl-4-[[1-(trifluoromethyl)cyclobutyl]-sulfamoyl]pyrrole-2-carboxamide], in that order: 60 nM, 40 nM and above 25000 nM.
For `Cn1cc(S(=O)(=O)NC2(C(F)(F)F)CCC2)cc1C(=O)Nc1ccnc(C#N)c1` [Compound 42, N-(2-cyano-4-pyridyl)-1-methyl-4-[[1-(trifluoromethyl)cyclobutyl]-sulfamoyl]pyrrole-2-carboxamide], in that order: 50 nM, 80 nM and above 25000 nM.
The corresponding values for `CC[C@@H](NS(=O)(=O)c1cn(C)c(C(=O)Nc2ccnc(C(F)F)c2)c1Cl)C(F)(F)F` [Compound 85, 3-chloro-N-[2-(difluoromethyl)-4-pyridyl]-1-methyl-4-[[(1R)-1-(trifluoromethyl)propyl]sulfamoyl]pyrrole-2-carboxamide] are 20 nM, 40 nM and 24000 nM.
`CC[C@@H](NS(=O)(=O)c1cn(C)c(C(=O)Nc2ccnc(C(F)F)c2)c1F)C(F)(F)F` [Compound 87, N-[2-(difluoromethyl)-4-pyridyl]-3-fluoro-1-methyl-4-[[(1R)-1-(trifluoromethyl)propyl]sulfamoyl]pyrrole-2-carboxamide]: the EC50 is 20 nM with HBV [1] and 30 nM with HBV [2]. The same compound came in with a CC50 at 4 days in data set [3] above 25000 nM.
For `CC[C@H](NS(=O)(=O)c1cc(C(=O)Nc2ccnc(Cl)c2)n(C)c1)C(F)(F)F` [Compound 47, N-(2-chloro-4-pyridyl)-1-methyl-4-[[(1S)-1-(trifluoromethyl)propyl]-sulfamoyl]pyrrole-2-carboxamide], in that order: 60 nM, 40 nM and above 25000 nM.
The corresponding values for `Cn1cc(S(=O)(=O)NC2(C)COC2)cc1C(=O)Nc1ccnc(C#N)c1` [Compound 1, N-(2-Cyanopyridin-4-yl)-1-methyl-4-[(3-methyloxetan-3-yl)sulfamoyl]-1H-pyrrole-2-carboxamide] are 860 nM, 650 nM and above 25000 nM.
The corresponding values for `CC(C)NS(=O)(=O)c1cn(C)c(C(=O)Nc2ccnc(C(F)F)c2)c1F` [Compound 82, N-[2-(difluoromethyl)-4-pyridyl]-3-fluoro-4-(isopropylsulfamoyl)-1-methyl-pyrrole-2-carboxamide] are 70 nM, 100 nM and above 25000 nM.
As for `CC[C@@H](NS(=O)(=O)c1cn(C)c(C(=O)Nc2ccnc(C#N)c2)c1Cl)C(F)(F)F` [Compound 38, 3-chloro-N-(2-cyano-4-pyridyl)-1-methyl-4-[[(1R)-1-(trifluoromethyl)propyl]-sulfamoyl]pyrrole-2-carboxamide], the results for the half-maximal effective concentration (EC50) in the data set on HBV [1] and in the data set on HBV [2] were 40 nM and 50 nM, respectively. In data set [3], this compound showed a half-maximal cytotoxic concentration (CC50) at 4 days above 25000 nM.
Regarding `C[C@@H](NS(=O)(=O)c1cn(C)c(C(=O)Nc2ccnc(Cl)c2F)c1Cl)C(F)(F)F` [Compound 33, 3-chloro-N-(2-chloro-3-fluoro-4-pyridyl)-1-methyl-4-[[(1R)-2,2,2-trifluoro-1-methyl-ethyl]sulfamoyl]pyrrole-2-carboxamide], the results for the EC50 in the data set with HBV [1] and in the data set on HBV [2] were 8 nM and 10 nM, respectively. Besides, the CC50 at 4 days in data set [3] was above 25000 nM.
Regarding `C[C@@H](NS(=O)(=O)c1cn(C)c(C(=O)Nc2ccnc(C(F)(F)F)c2)c1Cl)C(F)(F)F` [Compound 10, 3-Chloro-1-methyl-4-{[(1R)-2,2,2-trifluoro-1-methylethyl]sulfamoyl}-N-[2-(trifluoromethyl)pyridin-4-yl]-1H-pyrrole-2-carboxamide], the concentration for a half-maximal effect (EC50) in the data set on HBV [1] worked out at 70 nM; in the data set on HBV [2] it was 160 nM. For the same compound, the 50% cytotoxic concentration (CC50) at 4 days in data set [3] was above 25000 nM.
`Cn1cc(S(=O)(=O)NC2(C(F)(F)F)CCC2)c(F)c1C(=O)Nc1cc(Cl)nc(C#N)c1` [Compound 121, N-(2-chloro-6-cyano-4-pyridyl)-3-fluoro-1-methyl-4-[[1-(trifluoromethyl)cyclobutyl]sulfamoyl]pyrrole-2-carboxamide] came in with a half-maximal effective concentration (EC50) in the data set with HBV [2] of 40 nM. This compound also showed a CC50 at 4 days in data set [3] above 25000 nM.
For `Cn1cc(S(=O)(=O)NC2(C(F)(F)F)CCOCC2)c(Cl)c1C(=O)Nc1ccnc(Cl)c1` [Compound 180, 3-chloro-N-(2-chloro-4-pyridyl)-1-methyl-4-[[4-(trifluoromethyl)tetrahydropyran-4-yl]sulfamoyl]pyrrole-2-carboxamide], in that order: 630 nM and above 25000 nM.
The corresponding values for `Cn1cc(S(=O)(=O)NC2(C(F)(F)F)CCC2)c(F)c1C(=O)Nc1ccnc(Br)c1F` [Compound 166, N-(2-bromo-3-fluoro-4-pyridyl)-3-fluoro-1-methyl-4-[[1-(trifluoromethyl)cyclobutyl]sulfamoyl]pyrrole-2-carboxamide] are 3 nM and above 25000 nM.
For `C[C@@H](NS(=O)(=O)c1cc(C(=O)Nc2ccnc(C#N)c2)n(C)c1)C(C)(F)F` [Compound 101, N-(2-cyano-4-pyridyl)-4-[[(1R)-2,2-difluoro-1-methyl-propyl]sulfamoyl]-1-methyl-pyrrole-2-carboxamide], in that order: 430 nM and above 25000 nM.

The EC50 is the midpoint of the concentration-response curve. Low values mean higher potency in that assay, high ones lower potency in that assay. A word on the CC50: it is the concentration at which the toxic effect on the cells reaches its halfway point. High values mean better tolerance by the cells, low ones harm at low concentration.
